Data published in patent US7074789B2, “Kinase inhibitors” (Amgen Inc., priority 1999, dated 2006).
pIC50: −log10 of the molar value.

Columns and labels:
Format in all cases: biochemical
Itk = target: T1, Itk (Homo sapiens, UniProt Q08881); assay: Kinase inhibition assay (33P transfer), Itk; conditions: Table 3; read-out: Itk-1
T1 construct: Kinases are expressed as either kinase domains or full length constructs; made in house
T1 sequence (Q08881 1-620): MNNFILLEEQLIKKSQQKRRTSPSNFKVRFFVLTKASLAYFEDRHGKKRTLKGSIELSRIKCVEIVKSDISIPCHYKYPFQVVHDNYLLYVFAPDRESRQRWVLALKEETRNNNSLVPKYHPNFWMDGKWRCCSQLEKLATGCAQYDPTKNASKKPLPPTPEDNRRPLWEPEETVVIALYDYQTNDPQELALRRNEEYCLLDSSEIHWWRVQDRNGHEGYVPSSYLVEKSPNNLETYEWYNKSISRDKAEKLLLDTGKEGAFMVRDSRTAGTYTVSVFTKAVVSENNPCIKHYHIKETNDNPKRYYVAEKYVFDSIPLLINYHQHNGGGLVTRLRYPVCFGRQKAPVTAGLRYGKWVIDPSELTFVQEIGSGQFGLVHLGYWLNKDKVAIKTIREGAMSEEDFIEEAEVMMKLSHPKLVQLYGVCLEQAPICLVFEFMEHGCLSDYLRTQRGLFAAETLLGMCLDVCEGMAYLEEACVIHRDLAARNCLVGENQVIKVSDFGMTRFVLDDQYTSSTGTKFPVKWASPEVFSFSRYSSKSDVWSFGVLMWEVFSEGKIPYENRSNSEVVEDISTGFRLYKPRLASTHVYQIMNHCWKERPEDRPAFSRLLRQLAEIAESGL
Summary of the method: (§1)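 GST/His-fusion kinases, E. coli or High Five expressed, affinity purified; 33P-ATP, plate-coated poly(Glu,Tyr) 4:1 or poly(Arg,Ser) 3:1; 0.5% H3PO4 wash, scintillant, LSC.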

Lck = target: T2, Lck (Homo sapiens, UniProt P06239); assay: Kinase inhibition assay (33P transfer), Lck; conditions: Table 3; read-out: Lck-1
T2 construct: Kinases are expressed as either kinase domains or full length constructs; made in house
Summary of the method: (§2)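 Kinase domains or full-length kinases, GST- or His-tagged and expressed in E. coli or baculovirus/High Five cells, transferred 33PO4 from ATP onto plate-bound poly(Glu,Tyr) 4:1 or poly(Arg,Ser) 3:1. After incubation, plates were washed with 0.5% phosphoric acid and counted by liquid scintillation.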

Zap-70 = target: T3, Zap-70 (Homo sapiens, UniProt P43403); assay: Kinase inhibition assay (33P transfer), Zap-70; conditions: Table 3; read-out: Zap-1
T3 construct: Kinases are expressed as either kinase domains or full length constructs; made in house
T3 sequence (P43403 1-619): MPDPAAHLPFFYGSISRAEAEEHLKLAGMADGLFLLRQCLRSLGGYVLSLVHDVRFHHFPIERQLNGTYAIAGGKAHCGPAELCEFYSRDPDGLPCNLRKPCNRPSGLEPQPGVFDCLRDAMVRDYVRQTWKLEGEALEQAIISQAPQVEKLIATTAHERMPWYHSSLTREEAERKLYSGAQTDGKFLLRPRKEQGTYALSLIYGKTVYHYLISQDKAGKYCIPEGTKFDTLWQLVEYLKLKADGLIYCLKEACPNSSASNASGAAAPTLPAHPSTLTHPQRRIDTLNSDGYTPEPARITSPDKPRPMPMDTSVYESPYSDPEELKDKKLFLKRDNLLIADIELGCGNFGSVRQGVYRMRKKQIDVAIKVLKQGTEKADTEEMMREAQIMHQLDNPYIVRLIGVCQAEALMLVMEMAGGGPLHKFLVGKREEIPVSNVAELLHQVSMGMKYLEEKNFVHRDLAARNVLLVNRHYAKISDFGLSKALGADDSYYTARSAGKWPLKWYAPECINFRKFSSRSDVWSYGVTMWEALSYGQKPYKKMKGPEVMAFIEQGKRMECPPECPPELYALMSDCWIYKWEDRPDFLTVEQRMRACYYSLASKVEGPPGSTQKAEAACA
Summary of the method: as §2

EGFR = target: T4, EGFR (Homo sapiens, UniProt P00533); assay: Kinase inhibition assay (33P transfer), EGFR; conditions: Table 2, kinase inhibition class; read-out: EGFR-1
T4 construct: Kinases are expressed as either kinase domains or full length constructs; made in house
Summary of the method: as §1

AKT = target: T5, AKT (Homo sapiens, UniProt Q9Y243); assay: Kinase inhibition assay (33P transfer), AKT; conditions: Table 2, kinase inhibition class; read-out: AKT3-1
T5 construct: Kinases are expressed as either kinase domains or full length constructs; made in house
Summary of the method: as §2

Kdr = target: T6, Kdr (Homo sapiens, UniProt P35968); assay: Kinase inhibition assay (33P transfer), Kdr; conditions: Table 3; read-out: KDR-1
T6 construct: Kinases are expressed as either kinase domains or full length constructs; made in house
Summary of the method: as §2

EPHB4 = target: T7, EPHB4 (Homo sapiens, UniProt P54760); assay: Kinase inhibition assay (33P transfer), EPHB4; conditions: read-out: EPHB4-1
T7 construct: Kinases are expressed as either kinase domains or full length constructs; made in house
T7 sequence (P54760 16-987): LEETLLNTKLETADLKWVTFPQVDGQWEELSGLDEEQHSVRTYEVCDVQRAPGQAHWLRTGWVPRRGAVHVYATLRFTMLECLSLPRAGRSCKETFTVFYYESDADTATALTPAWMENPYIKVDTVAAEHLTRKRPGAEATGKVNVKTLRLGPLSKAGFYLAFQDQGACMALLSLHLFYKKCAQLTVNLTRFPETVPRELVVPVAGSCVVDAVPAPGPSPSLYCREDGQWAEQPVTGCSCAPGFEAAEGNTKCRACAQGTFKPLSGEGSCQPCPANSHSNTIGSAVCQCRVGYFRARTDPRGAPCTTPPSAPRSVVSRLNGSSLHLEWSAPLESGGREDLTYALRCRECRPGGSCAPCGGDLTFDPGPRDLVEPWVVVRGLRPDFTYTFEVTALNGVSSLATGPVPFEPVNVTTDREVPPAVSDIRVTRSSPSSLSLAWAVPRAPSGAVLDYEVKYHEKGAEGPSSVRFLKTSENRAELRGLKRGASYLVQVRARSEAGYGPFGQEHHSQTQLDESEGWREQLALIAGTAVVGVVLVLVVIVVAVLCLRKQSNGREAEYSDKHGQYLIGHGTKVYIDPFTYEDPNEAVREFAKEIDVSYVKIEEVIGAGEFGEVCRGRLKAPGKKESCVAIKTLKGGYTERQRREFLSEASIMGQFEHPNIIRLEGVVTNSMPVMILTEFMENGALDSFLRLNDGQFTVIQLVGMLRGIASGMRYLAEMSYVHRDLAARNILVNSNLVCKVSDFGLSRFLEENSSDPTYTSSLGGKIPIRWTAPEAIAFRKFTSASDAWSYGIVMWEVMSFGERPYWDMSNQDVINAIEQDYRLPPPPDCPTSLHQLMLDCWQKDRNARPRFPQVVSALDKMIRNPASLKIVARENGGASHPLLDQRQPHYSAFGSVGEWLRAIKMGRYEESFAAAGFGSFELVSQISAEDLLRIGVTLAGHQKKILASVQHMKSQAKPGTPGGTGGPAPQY

IGFR-1 = target: T8, IGFR-1 (Homo sapiens, UniProt P08069); assay: Kinase inhibition assay (33P transfer), IGFR-1; conditions: Table 2, kinase inhibition class
T8 construct: Kinases are expressed as either kinase domains or full length constructs; made in house

Tek = target: T9, Tek (Homo sapiens, UniProt Q02763); assay: Kinase inhibition assay (33P transfer), Tek; conditions: read-out: Tek-1
T9 construct: Kinases are expressed as either kinase domains or full length constructs; made in house
Summary of the method: as §1

c-Met = target: T10, c-Met (Homo sapiens, UniProt P08581); assay: Kinase inhibition assay (33P transfer), c-Met; conditions: Table 2, kinase inhibition class; read-out: Met-1
T10 construct: Kinases are expressed as either kinase domains or full length constructs; made in house
Summary of the method: as §1

T9 sequence (Q02763 23-1124, species assumed): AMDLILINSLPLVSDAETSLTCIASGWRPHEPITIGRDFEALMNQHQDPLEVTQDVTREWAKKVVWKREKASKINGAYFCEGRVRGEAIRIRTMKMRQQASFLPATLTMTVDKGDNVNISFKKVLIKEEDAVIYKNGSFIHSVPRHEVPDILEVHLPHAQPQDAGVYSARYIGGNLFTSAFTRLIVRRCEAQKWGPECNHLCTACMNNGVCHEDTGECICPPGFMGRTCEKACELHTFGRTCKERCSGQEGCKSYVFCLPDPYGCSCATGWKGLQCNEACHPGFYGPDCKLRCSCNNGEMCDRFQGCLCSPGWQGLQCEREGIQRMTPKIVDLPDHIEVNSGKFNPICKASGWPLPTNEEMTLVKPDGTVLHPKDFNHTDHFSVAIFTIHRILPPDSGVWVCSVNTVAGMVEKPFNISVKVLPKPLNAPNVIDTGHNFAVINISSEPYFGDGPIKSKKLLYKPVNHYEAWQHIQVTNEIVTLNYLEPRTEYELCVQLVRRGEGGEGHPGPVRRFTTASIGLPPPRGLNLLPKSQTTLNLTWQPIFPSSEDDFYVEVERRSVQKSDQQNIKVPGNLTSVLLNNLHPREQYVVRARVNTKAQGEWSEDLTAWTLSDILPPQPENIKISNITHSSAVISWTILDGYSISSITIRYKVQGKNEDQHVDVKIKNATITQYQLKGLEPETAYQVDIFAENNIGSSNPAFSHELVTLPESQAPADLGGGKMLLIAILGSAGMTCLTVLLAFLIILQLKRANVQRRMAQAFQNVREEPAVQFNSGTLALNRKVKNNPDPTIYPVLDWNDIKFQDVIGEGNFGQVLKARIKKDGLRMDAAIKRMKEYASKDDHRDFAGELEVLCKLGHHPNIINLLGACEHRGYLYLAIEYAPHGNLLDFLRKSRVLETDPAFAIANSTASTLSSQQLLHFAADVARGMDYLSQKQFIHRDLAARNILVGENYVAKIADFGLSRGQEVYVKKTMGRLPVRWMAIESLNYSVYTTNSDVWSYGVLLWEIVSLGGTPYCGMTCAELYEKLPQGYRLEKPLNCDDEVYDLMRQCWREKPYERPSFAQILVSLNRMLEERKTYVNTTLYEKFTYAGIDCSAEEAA
T6 sequence (P35968 20-1356, species assumed): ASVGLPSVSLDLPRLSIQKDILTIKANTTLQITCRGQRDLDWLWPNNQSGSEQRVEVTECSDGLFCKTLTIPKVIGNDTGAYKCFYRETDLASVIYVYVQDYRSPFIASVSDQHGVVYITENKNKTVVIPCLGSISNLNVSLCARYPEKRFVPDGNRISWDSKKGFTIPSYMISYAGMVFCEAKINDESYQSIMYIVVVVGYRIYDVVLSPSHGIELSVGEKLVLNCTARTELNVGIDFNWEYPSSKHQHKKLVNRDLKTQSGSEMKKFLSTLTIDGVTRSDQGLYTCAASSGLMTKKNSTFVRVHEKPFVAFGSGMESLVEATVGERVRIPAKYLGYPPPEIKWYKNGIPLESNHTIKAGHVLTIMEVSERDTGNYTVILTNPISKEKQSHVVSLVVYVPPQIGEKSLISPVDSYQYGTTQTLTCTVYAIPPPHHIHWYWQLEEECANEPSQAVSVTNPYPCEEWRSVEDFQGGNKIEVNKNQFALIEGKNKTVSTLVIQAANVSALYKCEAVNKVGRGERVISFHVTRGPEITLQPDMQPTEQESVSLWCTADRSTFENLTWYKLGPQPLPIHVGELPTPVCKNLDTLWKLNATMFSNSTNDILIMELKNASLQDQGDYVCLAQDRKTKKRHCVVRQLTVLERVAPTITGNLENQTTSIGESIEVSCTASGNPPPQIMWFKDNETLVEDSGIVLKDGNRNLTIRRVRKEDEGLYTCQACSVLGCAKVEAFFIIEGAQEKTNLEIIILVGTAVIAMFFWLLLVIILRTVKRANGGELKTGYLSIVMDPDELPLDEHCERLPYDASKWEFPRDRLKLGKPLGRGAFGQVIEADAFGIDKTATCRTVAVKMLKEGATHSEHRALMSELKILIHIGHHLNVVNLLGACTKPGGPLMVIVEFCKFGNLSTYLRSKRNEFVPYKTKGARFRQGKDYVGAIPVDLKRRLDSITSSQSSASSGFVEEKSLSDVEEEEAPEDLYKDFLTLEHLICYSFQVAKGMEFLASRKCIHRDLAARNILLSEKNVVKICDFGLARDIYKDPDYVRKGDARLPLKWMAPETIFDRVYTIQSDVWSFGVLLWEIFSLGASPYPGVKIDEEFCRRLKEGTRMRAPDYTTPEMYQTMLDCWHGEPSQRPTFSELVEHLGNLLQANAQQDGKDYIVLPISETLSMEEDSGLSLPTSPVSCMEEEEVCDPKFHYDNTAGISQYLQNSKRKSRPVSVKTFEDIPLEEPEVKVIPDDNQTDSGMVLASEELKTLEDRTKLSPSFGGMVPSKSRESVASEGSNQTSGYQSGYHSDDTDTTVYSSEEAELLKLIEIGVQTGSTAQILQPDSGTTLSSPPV
T10 sequence (P08581 25-1390): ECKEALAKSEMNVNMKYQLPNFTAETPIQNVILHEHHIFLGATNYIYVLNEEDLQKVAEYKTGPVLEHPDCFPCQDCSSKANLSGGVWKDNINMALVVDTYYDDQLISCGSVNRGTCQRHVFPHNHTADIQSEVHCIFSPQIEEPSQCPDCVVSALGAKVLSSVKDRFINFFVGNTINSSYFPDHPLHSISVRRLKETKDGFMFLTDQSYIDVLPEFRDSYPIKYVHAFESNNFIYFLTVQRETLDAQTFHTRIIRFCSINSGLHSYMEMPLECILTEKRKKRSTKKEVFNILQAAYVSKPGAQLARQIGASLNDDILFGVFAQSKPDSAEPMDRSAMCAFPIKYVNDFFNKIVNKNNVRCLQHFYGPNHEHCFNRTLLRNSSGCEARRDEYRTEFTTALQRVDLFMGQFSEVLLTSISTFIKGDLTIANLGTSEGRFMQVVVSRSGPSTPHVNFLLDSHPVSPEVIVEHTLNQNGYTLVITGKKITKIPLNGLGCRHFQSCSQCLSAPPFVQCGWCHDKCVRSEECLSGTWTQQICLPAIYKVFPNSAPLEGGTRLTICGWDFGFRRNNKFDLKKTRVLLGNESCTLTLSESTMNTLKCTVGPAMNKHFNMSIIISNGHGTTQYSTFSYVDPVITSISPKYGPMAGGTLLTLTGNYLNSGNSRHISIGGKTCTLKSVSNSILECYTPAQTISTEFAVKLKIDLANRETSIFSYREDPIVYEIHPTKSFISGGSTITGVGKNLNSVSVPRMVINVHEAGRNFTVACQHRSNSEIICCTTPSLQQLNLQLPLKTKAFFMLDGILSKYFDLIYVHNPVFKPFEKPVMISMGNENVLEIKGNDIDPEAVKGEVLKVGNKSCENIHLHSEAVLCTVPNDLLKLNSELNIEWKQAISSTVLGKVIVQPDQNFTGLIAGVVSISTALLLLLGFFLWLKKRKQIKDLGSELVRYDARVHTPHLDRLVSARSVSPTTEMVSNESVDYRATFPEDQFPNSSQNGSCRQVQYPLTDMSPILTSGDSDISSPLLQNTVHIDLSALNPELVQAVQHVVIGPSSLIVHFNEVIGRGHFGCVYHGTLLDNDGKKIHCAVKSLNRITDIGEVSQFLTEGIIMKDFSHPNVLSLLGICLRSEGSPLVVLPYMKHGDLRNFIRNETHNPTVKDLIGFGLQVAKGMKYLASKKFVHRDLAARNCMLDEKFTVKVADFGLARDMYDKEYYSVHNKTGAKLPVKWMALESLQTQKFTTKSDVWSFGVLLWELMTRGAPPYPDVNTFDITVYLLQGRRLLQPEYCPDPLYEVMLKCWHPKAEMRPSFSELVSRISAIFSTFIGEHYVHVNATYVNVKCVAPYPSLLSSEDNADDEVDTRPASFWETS
T8 sequence (P08069 31-1367): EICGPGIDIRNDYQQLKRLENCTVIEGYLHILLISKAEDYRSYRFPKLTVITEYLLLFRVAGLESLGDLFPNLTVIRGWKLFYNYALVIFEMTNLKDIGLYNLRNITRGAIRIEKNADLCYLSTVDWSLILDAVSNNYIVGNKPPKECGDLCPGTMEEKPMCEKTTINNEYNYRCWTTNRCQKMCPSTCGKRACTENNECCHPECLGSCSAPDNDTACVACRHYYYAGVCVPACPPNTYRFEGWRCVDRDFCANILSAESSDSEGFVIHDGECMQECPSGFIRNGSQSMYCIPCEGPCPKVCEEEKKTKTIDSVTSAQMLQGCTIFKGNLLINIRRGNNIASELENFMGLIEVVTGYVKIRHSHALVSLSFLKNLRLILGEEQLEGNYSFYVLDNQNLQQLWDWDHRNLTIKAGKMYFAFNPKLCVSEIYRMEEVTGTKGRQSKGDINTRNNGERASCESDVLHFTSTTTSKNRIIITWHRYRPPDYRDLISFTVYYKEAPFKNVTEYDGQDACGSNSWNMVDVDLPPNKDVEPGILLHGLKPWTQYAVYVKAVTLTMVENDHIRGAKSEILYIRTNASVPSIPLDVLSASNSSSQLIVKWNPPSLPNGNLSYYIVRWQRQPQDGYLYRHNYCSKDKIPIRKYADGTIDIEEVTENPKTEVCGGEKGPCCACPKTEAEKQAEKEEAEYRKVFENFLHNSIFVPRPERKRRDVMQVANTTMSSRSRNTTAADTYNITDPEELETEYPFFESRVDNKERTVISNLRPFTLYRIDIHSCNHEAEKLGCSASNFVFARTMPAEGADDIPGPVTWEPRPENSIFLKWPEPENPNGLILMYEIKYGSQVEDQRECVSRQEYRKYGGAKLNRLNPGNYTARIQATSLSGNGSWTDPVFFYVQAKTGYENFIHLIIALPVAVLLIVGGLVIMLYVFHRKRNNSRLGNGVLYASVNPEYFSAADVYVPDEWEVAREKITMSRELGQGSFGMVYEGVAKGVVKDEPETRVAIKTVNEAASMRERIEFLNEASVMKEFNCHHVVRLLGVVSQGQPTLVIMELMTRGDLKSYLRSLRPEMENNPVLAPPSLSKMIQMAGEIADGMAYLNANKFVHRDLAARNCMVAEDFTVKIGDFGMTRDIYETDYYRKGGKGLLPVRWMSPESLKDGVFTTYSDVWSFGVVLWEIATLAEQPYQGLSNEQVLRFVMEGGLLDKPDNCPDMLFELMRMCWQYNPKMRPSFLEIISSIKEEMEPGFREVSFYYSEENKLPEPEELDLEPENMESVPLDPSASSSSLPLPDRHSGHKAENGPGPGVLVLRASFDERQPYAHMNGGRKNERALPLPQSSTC

Row | SMILES | pIC50 (Itk) | pIC50 (Lck) | pIC50 (Zap-70) | pIC50 (EGFR) | pIC50 (AKT) | pIC50 (Kdr) | pIC50 (EPHB4) | pIC50 (IGFR-1) | pIC50 (Tek) | pIC50 (c-Met)
1 | COc1cc(Nc2ncnc(-c3cc4ccccc4s3)n2)cc(OC)c1OC [Compound 218] | < 4.94 | < 4.94 | < 4.94 | < 4.94 | < 4.94 | < 4.94 | < 4.94 | < 4.94 | < 4.94 | < 4.94
2 | COc1cc(Nc2ncnc(-c3ccsc3)n2)cc(OC)c1OC [Compound 226] | < 4.88 | 4.88 to 4.99 | 4.88 to 4.99 | < 4.88 | < 4.88 | 4.99 to 5.16 | < 4.88 | < 4.88 | 4.88 to 4.99 | < 4.88
3 | COc1cc(Nc2ncnc(N(Cc3ccccc3)c3nc4ccccc4[nH]3)n2)cc(OC)c1OC [Compound 373] | < 5.03 | < 5.03 | < 5.03 | 5.14 to 5.30 | < 5.03 | 5.30 to 6.08 | < 5.03 | < 5.03 | 5.30 to 6.08 | < 5.03
4 | COc1ccc(Nc2ncnc(N(CC(=O)OC(C)(C)C)c3ccc4c(c3)OCO4)n2)cc1OC [Compound 310] | < 5.03 | 5.30 to 6.08 | < 5.03 | 5.30 to 6.08 | < 5.03 | 5.03 to 5.14 | < 5.03 | 5.30 to 6.08 | < 5.03 | < 5.03
5 | COc1cc(OC)cc(-c2nnc(Nc3ncnc(Nc4cc(OC)c(OC)c(OC)c4)n3)[nH]2)c1 [Compound 312] | < 5.03 | < 5.03 | < 5.03 | < 5.03 | < 5.03 | < 5.03 | < 5.03 | < 5.03 | < 5.03 | < 5.03
6 | COc1ccc(Nc2ncnc(Nc3ccc(Br)cc3F)n2)cc1OC [Compound 117] | < 4.97 | 5.08 to 5.24 | 4.97 to 5.08 | 5.08 to 5.24 | 5.08 to 5.24 | 5.24 to 6.02 | 4.97 to 5.08 | < 4.97 | < 4.97 | 4.97 to 5.08
7 | COc1cc(Nc2ncnc(-c3ccc(F)cc3)n2)cc(OC)c1OC [Compound 222] | < 4.90 | < 4.90 | < 4.90 | < 4.90 | < 4.90 | 4.90 to 5.01 | < 4.90 | < 4.90 | < 4.90 | < 4.90
8 | COc1cc(Nc2ncnc(Nc3ccc(NC(=O)OC(C)(C)C)cc3)n2)cc(OC)c1OC [Compound 69] | < 5.02 | 5.29 to 6.07 | < 5.02 | < 5.02 | < 5.02 | 5.29 to 6.07 | < 5.02 | < 5.02 |  | < 5.02
9 | FC(F)C(F)(F)Oc1cccc(Nc2ncnc(-c3ccnc(Cl)c3)n2)c1 [Compound 330] | < 4.95 | < 4.95 | < 4.95 | < 4.95 | < 4.95 | < 4.95 | 5.06 to 5.22 | 4.95 to 5.06 |  | < 4.95
10 | COc1cc(Nc2ncnc(Nc3cccc(OCc4ccccc4)c3)n2)cc(OC)c1OC [Compound 73] | < 5.01 | < 5.01 | < 5.01 | < 5.01 | < 5.01 | < 5.01 | < 5.01 | < 5.01 |  | < 5.01
11 | COc1cc(Nc2ncnc(-n3c(Nc4ccc(C#N)cc4)nc4ccccc43)n2)cc(OC)c1OC [Compound 381] | < 5.04 | 5.04 to 5.15 | < 5.04 | < 5.04 | < 5.04 | 5.15 to 5.31 | 5.31 to 6.09 | < 5.04 |  | 5.04 to 5.15
12 | COc1cc(Nc2ncnc(-n3cc(C#N)c4ccccc43)n2)cc(OC)c1OC [Compound 332] | < 4.95 | 4.95 to 5.06 | < 4.95 | < 4.95 | < 4.95 | 5.22 to 6.00 | 5.22 to 6.00 | 5.06 to 5.22 |  | 5.06 to 5.22
